Experimental data taken from publication doi:10.1101/2020.05.06.079947v2 (biorxiv, 2020).

Molecular target: PDEδ (Homo sapiens, UniProt O43924)
Assay: SPR
Assay type: binding

Sequence of PDEδ (O43924 whole entry): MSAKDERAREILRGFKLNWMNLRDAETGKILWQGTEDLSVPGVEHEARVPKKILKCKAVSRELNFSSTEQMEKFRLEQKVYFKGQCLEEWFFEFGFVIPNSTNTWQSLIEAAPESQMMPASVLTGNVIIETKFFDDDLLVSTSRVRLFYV

Compound: O=C(COc1cccc2c1C(=O)N(C1CCC(=O)NC1=O)C2=O)NCCCOCCOCCOCCCNC(=O)c1cc(Oc2ccc(NC(=O)Nc3ccc(Cl)c(C(F)(F)F)c3)cc2)ccn1 (stereo not shown) [PROTAC T-S, 4-(4-(3-(4-chloro-3-(trifluoromethyl)phenyl)ureido)phenoxy)-N-(1-((2-(2,6-dioxopiperidin-3-yl)-1,3-dioxoisoindolin-4-l)oxy)-2-oxo-7,10,13-trioxa-3-azahexadecan-16-yl)picolinamide]
- Kd: 2260 nM
